Experimental data reported in US11608335B2, “Somatostatin modulators and uses thereof” (CRINETICS PHARMACEUTICALS, INC., priority 2018, dated 2023).

Target: human somatostatin receptor subtype 5 (Homo sapiens, UniProt P35346)
Test: cAMP assay for SST5R (inhibition of cAMP via human SST5 receptor)

Sequence of human somatostatin receptor subtype 5 (P35346 whole entry): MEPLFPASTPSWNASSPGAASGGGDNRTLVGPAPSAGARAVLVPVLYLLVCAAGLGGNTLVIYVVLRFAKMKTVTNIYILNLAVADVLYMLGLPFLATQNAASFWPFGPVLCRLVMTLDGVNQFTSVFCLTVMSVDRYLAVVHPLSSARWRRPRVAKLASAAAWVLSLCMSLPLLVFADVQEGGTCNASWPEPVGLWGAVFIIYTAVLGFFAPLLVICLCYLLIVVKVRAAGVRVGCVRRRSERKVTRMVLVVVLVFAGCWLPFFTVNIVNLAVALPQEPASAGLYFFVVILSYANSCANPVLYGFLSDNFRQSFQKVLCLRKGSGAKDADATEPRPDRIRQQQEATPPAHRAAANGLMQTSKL

Fold selectivity for SST5 vs SST2 (SST5 over SST2, given as number (comparison compounds))	EC50	SMILES
0.00004		COc1cc(Cl)cc2[nH]c(-c3cncc(-c4cc(C)cc(F)c4)c3N3CCC(N)CC3)nc12
	0.1 to 1 µM	N#Cc1cccc(-c2cncc(-c3nc4cccc(F)c4[nH]3)c2N2C[C@@H](N)[C@H](c3ccccc3)C2)c1 (racemic) [Compound 2-56, 3-{4-[trans-3-amino-4-phenylpyrrolidin-1-yl]-5-(4-fluoro-1H-1,3-benzodiazol-2-yl)pyridin-3-yl}benzonitrile]
	0.01 to 0.1 µM	N#Cc1cccc(-c2cncc(-c3nc4cccc(F)c4[nH]3)c2N2C[C@@H](N)[C@@H](O)C2)c1 (racemic) [Compound 2-68, 3-{4-[cis-3-amino-4-hydroxypyrrolidin-1-yl]-5-(4-fluoro-1H-1,3-benzodiazol-2-yl)pyridin-3-yl}benzonitrile]
	> 1 µM	N#Cc1cccc(-c2cncc(-c3nc4c(F)cccc4[nH]3)c2N2C[C@@H](N)[C@H](C(N)=O)C2)c1 (racemic) [Compound 2-69, trans-4-amino-1-[3-(3-cyanophenyl)-5-(4-fluoro-1H-1,3-benzodiazol-2-yl)pyridin-4-yl]pyrrolidine-3-carboxamide]
	0.01 to 0.1 µM	N#Cc1cccc(-c2cncc(-c3nc4c(F)cccc4[nH]3)c2N2C[C@@H](N)[C@H](O)C2)c1 (racemic) [Compound 2-81, 3-{4-[trans-3-amino-4-hydroxypyrrolidin-1-yl]-5-(4-fluoro-1H-1,3-benzodiazol-2-yl)pyridin-3-yl}benzonitrile]
	0.01 to 0.1 µM	N#Cc1cccc(-c2cncc(-c3nc4cccc(F)c4[nH]3)c2N2C[C@H](CO)[C@@H](N)C2)c1 (racemic) [Compound 2-89, 3-{4-[trans-3-amino-4-(hydroxymethyl)pyrrolidin-1-yl]-5-(4-fluoro-1H-1,3-benzodiazol-2-yl)pyridin-3-yl}benzonitrile]
	0.1 to 1 µM	Cc1cc(F)cc(-c2cncc(-c3nc4cc(C#N)ccc4[nH]3)c2N2CC(CN)C2)c1 [Compound 1-8, 2-{4-[3-(aminomethyl)azetidin-1-yl]-5-(3-fluoro-5-methylphenyl)pyridin-3-yl}-1H-1,3-benzodiazole-5-carbonitrile]
	0.1 to 1 µM	COc1ccc2[nH]c(-c3cncc(-c4cc(C)cc(F)c4)c3N3CC(CN)C3)nc2c1 [Compound 1-12, 1-{1-[3-(3-fluoro-5-methylphenyl)-5-(5-methoxy-1H-1,3-benzodiazol-2-yl)pyridin-4-yl]azetidin-3-yl}methanamine]
	0.01 to 0.1 µM	Cc1cc(F)cc(-c2cncc(-c3nc4cc(F)c(F)cc4[nH]3)c2N2CC(CN)C2)c1 [Compound 1-13, 1-{1-[3-(5,6-difluoro-1H-1,3-benzodiazol-2-yl)-5-(3-fluoro-5-methylphenyl)pyridin-4-yl]azetidin-3-yl}methanamine]
	0.01 to 0.1 µM	Cc1cc(F)cc(-c2cncc(-c3nc4cc(F)c(Cl)cc4[nH]3)c2N2CC(CN)C2)c1 [Compound 1-14, 1-{1-[3-(5-chloro-6-fluoro-1H-1,3-benzodiazol-2-yl)-5-(3-fluoro-5-methylphenyl)pyridin-4-yl]azetidin-3-yl}methanamine]
	0.01 to 0.1 µM	COc1cc(F)cc2nc(-c3cncc(-c4cc(C)cc(F)c4)c3N3CC(CN)C3)[nH]c12 [Compound 1-15, 1-{1-[3-(6-fluoro-4-methoxy-1H-1,3-benzodiazol-2-yl)-5-(3-fluoro-5-methylphenyl)pyridin-4-yl]azetidin-3-yl}methanamine]
	0.1 to 1 µM	Cc1cc(F)cc(-c2cncc(-c3nc4cc(C#N)cc(F)c4[nH]3)c2N2CC(CN)C2)c1 [Compound 1-16, 2-{4-[3-(aminomethyl)azetidin-1-yl]-5-(3-fluoro-5-methylphenyl)pyridin-3-yl}-4-fluoro-1H-1,3-benzodiazole-6-carbonitrile]
	0.1 to 1 µM	Cc1cc(F)cc(-c2cncc(-c3nc4cc(C#N)c(F)cc4[nH]3)c2N2CC(CN)C2)c1 [Compound 1-17, 2-{4-[3-(aminomethyl)azetidin-1-yl]-5-(3-fluoro-5-methylphenyl)pyridin-3-yl}-6-fluoro-1H-1,3-benzodiazole-5-carbonitrile]
	0.01 to 0.1 µM	Cc1cc(F)cc(-c2cncc(-c3nc4cc(Cl)cc(F)c4[nH]3)c2N2CC(CN)C2)c1 [Compound 1-18, 1-{1-[3-(6-chloro-4-fluoro-1H-1,3-benzodiazol-2-yl)-5-(3-fluoro-5-methylphenyl)pyridin-4-yl]azetidin-3-yl}methanamine]
	0.01 to 0.1 µM	Cc1cc(C)cc(-c2cncc(-c3nc4cc(F)cc(F)c4[nH]3)c2N2CC(CN)C2)c1 [Compound 1-19, 1-{1-[3-(4,6-difluoro-1H-1,3-benzodiazol-2-yl)-5-(3,5-dimethylphenyl)pyridin-4-yl]azetidin-3-yl}methanamine]
	< 0.01 µM	Cc1cc(Cl)cc(-c2cncc(-c3nc4cc(F)cc(F)c4[nH]3)c2N2CC(CN)C2)c1 [Compound 1-20, 1-{1-[3-(3-chloro-5-methylphenyl)-5-(4,6-difluoro-1H-1,3-benzodiazol-2-yl)pyridin-4-yl]azetidin-3-yl}methanamine]
	< 0.01 µM	NCC1CN(c2c(-c3cc(F)cc(F)c3)cncc2-c2nc3cc(F)cc(F)c3[nH]2)C1 [Compound 1-21, 1-{1-[3-(4,6-difluoro-1H-1,3-benzodiazol-2-yl)-5-(3,5-difluorophenyl)pyridin-4-yl]azetidin-3-yl}methanamine]

Fold selectivity for SST5 vs SST2 (SST5 over SST2, given as number (comparison compounds))	EC50	SMILES
	0.1 to 1 µM	Cc1cc(F)cc(-c2cncc(-c3nc4cnccc4[nH]3)c2N2CC(CN)C2)c1 [Compound 1-22, 1-{1-[3-(3-fluoro-5-methylphenyl)-5-{3H-imidazo[4,5-c]pyridin-2-yl}pyridin-4-yl]azetidin-3-yl}methanamine]
	0.1 to 1 µM	Cc1cc(F)cc(-c2cncc(-c3nc4cccnc4[nH]3)c2N2CC(CN)C2)c1 [Compound 1-23, 1-{1-[3-(3-fluoro-5-methylphenyl)-5-{1H-imidazo[4,5-b]pyridin-2-yl}pyridin-4-yl]azetidin-3-yl}methanamine]
	0.01 to 0.1 µM	Cc1cc(F)cc(-c2cncc(-c3nc4c(F)cccc4n3C)c2N2CC(CN)C2)c1 [Compound 1-24, 1-{1-[3-(4-fluoro-1-methyl-1H-1,3-benzodiazol-2-yl)-5-(3-fluoro-5-methylphenyl)pyridin-4-yl]azetidin-3-yl}methanamine]
	0.01 to 0.1 µM	Cc1cc(F)cc(-c2cncc(-c3nc4cccc(F)c4n3C)c2N2CC(CN)C2)c1 [Compound 1-25, 1-{1-[3-(7-Fluoro-1-methyl-1H-1,3-benzodiazol-2-yl)-5-(3-fluoro-5-methylphenyl)pyridin-4-yl]azetidin-3-yl}methanamine]
	0.1 to 1 µM	Cc1cc(F)cc(-c2cncc(-c3nc4cc(F)cc(F)c4[nH]3)c2N2CC(O)(CN)C2)c1 [Compound 1-26, 3-(aminomethyl)-1-[3-(4,6-difluoro-1H-1,3-benzodiazol-2-yl)-5-(3-fluoro-5-methylphenyl)pyridin-4-yl]azetidin-3-ol]
	0.01 to 0.1 µM	NCC1CN(c2c(-c3ccccc3)cncc2-c2nc3c(F)cc(F)cc3[nH]2)C1 [Compound 1-27, 1-{1-[3-(4,6-difluoro-1H-1,3-benzodiazol-2-yl)-5-phenylpyridin-4-yl]azetidin-3-yl}methanamine]
	< 0.01 µM	Cc1cccc(-c2cncc(-c3nc4c(F)cc(F)cc4[nH]3)c2N2CC(CN)C2)c1 [Compound 1-29, 1-{1-[3-(4,6-difluoro-1H-1,3-benzodiazol-2-yl)-5-(3-methylphenyl)pyridin-4-yl]azetidin-3-yl}methanamine]
	0.01 to 0.1 µM	Cc1ccccc1-c1cncc(-c2nc3cc(F)cc(F)c3[nH]2)c1N1CC(CN)C1 [Compound 1-30, 1-{1-[3-(4,6-difluoro-1H-1,3-benzodiazol-2-yl)-5-(2-methylphenyl)pyridin-4-yl]azetidin-3-yl}methanamine]
	0.01 to 0.1 µM	Cc1ccc(-c2cncc(-c3nc4cc(F)cc(F)c4[nH]3)c2N2CC(CN)C2)cc1 [Compound 1-31, 1-{1-[3-(4,6-difluoro-1H-1,3-benzodiazol-2-yl)-5-(4-methylphenyl)pyridin-4-yl]azetidin-3-yl}methanamine]
	0.1 to 1 µM	Cc1cncc(-c2cncc(-c3nc4cc(F)cc(F)c4[nH]3)c2N2CC(CN)C2)c1 [Compound 1-32, 1-{1-[5-(4,6-difluoro-1H-1,3-benzodiazol-2-yl)-5′-methyl-[3,3′-bipyridin]-4-yl]azetidin-3-yl}methanamine]
	0.1 to 1 µM	Cc1cc(-c2cncc(-c3nc4cc(F)cc(F)c4[nH]3)c2N2CC(CN)C2)cc(C(F)(F)F)c1 [Compound 1-33, 1-{1-[3-(4,6-difluoro-1H-1,3-benzodiazol-2-yl)-5-[3-methyl-5-(trifluoromethyl)phenyl]pyridin-4-yl]azetidin-3-yl}methanamine]
	< 0.01 µM	N#Cc1cc(F)cc(-c2cncc(-c3nc4cc(F)cc(F)c4[nH]3)c2N2CC(CN)C2)c1 [Compound 1-34, 3-{4-[3-(aminomethyl)azetidin-1-yl]-5-(4,6-difluoro-1H-1,3-benzodiazol-2-yl)pyridin-3-yl}-5-fluorobenzonitrile]
	> 1 µM	NCC1CN(c2c(-c3ccc4cc[nH]c4c3)cncc2-c2nc3cc(F)cc(F)c3[nH]2)C1 [Compound 1-35, 1-{1-[3-(4,6-difluoro-1H-1,3-benzodiazol-2-yl)-5-(1H-indol-6-yl)pyridin-4-yl]azetidin-3-yl}methanamine]
	0.01 to 0.1 µM	NCC1CN(c2c(-c3nc4cc(F)cc(F)c4[nH]3)cncc2-c2cccc3cc[nH]c23)C1 [Compound 1-36, 1-{1-[3-(4,6-difluoro-1H-1,3-benzodiazol-2-yl)-5-(1H-indol-7-yl)pyridin-4-yl]azetidin-3-yl}methanamine]
	0.01 to 0.1 µM	NCC1CN(c2c(-c3cc(Cl)cc(C(F)(F)F)c3)cncc2-c2nc3cc(F)cc(F)c3[nH]2)C1 [Compound 1-40, 1-(1-{3-[3-chloro-5-(trifluoromethyl)phenyl]-5-(4,6-difluoro-1H-1,3-benzodiazol-2-yl)pyridin-4-yl}azetidin-3-yl)methanamine]
	0.1 to 1 µM	NCC1CN(c2c(-c3nc4c(F)cc(F)cc4[nH]3)cncc2-c2ccccc2F)C1 [Compound 1-44, 1-{1-[3-(4,6-difluoro-1H-1,3-benzodiazol-2-yl)-5-(2-fluorophenyl)pyridin-4-yl]azetidin-3-yl}methanamine]
